Test results published in US20230317203A1, “SCREENING METHOD” (University of Leeds, priority 2022, published 2023).
Where two headings read alike, the source gives them in different places.

What was measured:
BRISC [1] = biological target: T1, BRISC (Homo sapiens, UniProt P46736+Q15018+Q9NXR7); test: IQF K63-linked diUb DUB activity assay, BRISC; format: biochemical; design: made in house; host or cells: Spodoptera frugiperda (Sf9) insect cells; settings: for inhibition of BRISC DUB activity: IQF assay, BRISC 1 nM
Procedure: (§1) BRISC complexes were tested for activity in DUB reaction buffer containing 50 mM HEPES-NaOH pH 7.0, 100 mM NaCl, 0.1 mg/mL BSA, 1 mM DTT, and 0.003% Brij-35. […] Inhibitors were assayed at concentrations up to 200 μM. 20 μL enzyme reactions were carried out in 384-well black flat-bottom low flange plates (Corning; 35373). DUB activity was measured using internally quenched fluorescent (IQF) K63-linked diUb (Lifesensors, catalogue number: DU6303) at 50 or 100 nM. Cleaved diUb was monitored by measuring fluorescence intensity (Ex. 540 nm, Em. 580 nm; dichroic mirror 560 nm). Fluorescence intensity was measured every minute for 30 minutes at 30° C. Fluorescence intensity units for the first 10 minutes were plotted against time to generate a linear reaction progress curve, where the initial velocity (v0) corresponds to the gradient of the curve. IC50 values were calculated using the GraphPad Prism (v8.0) built-in dose-response equation for inhibitor concentration vs. response (variable slope).
(§2) A high throughput biochemical screen was designed to identify inhibitors of BRISC, based on the ability of small molecules to inhibit BRISC cleavage of a K63-linked di-ubiquitin substrate. The di-ubiquitin substrate is designed with a fluorescent TAMRA dye on the proximal ubiquitin moiety and fluorescence quencher on the distal ubiquitin molecule (FIG. 1A). Upon isopeptidase bond cleavage, fluorescence is detected, enabling continuous fluorescent readout of deubiquitylase activity over time (FIG. 1A). The assay conditions were optimised and used to test an in-house compound library comprising of ˜300 published and custom-made kinase inhibitors. From this screen, two hits were identified, compounds AT7519 (well H20) and YM201636 (well P12) (FIG. 1B). The specificity of these compounds was assessed against the broad-spectrum DUB ubiquitin-specific protease-2 (USP2) and the serine protease trypsin which cleave K63-Ub substrate under the same conditions. […] UV-Vis spectroscopy analyses of the compound in well H20 used in the screen compared to the Synkinase and Sellechem AT7519 compounds identified an additional peak in the H20 spectra (FIG. 5C). […] The synthesis of the two isomers was confirmed using mass spectrometry fragmentation analyses (FIG. 5E) and the inhibitory effect of the isomers was tested against BRISC.

Trypsin = test: IQF di-ubiquitin assay, trypsin specificity; format: biochemical; settings: Trypsin 125 nM, K63-Ub substrate
Source text: (§3) FIGS. 5A-5E show validation of hit compounds.
as §2

USP2 = USP2 (Homo sapiens, UniProt O75604); test: IQF di-ubiquitin assay, USP2 specificity; format: biochemical; settings: USP2 100 nM, K63-Ub substrate
USP2, sequence (O75604 whole entry, species assumed): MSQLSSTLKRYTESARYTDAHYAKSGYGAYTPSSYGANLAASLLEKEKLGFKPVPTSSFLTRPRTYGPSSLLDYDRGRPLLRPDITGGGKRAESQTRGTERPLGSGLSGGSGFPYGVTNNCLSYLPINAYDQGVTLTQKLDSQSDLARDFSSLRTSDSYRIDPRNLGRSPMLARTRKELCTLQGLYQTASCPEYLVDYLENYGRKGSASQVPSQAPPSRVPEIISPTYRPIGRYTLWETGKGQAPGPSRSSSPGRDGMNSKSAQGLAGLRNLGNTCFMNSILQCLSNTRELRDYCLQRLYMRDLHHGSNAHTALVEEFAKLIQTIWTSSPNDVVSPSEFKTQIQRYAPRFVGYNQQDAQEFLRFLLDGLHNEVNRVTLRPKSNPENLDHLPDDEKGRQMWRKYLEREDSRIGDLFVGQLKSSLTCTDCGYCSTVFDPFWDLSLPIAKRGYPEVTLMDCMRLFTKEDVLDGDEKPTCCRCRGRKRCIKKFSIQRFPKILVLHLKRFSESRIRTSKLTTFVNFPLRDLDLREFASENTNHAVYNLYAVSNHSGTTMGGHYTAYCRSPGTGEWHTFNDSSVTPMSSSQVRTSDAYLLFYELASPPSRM
Source text: as §3, §2

AMSH-LP = biological target: T2, AMSH-LP (Homo sapiens, UniProt Q96FJ0); test: IQF assay with JAMM/MPN DUB AMSH-LP; format: biochemical; settings: FIG. 1E
T2 sequence (Q96FJ0 1-436): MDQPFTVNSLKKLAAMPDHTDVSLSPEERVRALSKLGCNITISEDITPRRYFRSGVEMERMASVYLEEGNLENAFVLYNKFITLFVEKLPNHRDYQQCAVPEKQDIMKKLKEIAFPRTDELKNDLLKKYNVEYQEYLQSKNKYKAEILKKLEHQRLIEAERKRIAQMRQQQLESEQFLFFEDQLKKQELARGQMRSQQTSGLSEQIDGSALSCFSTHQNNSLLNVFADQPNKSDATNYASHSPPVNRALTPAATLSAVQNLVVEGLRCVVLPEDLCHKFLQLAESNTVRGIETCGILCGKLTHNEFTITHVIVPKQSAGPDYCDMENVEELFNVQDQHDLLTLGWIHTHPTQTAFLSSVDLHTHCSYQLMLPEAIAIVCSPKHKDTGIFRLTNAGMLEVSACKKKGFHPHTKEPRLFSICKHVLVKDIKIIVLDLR
Source text: (§4) FIGS. 1A-1F show the development a high-throughput screen to identify first-in-class DUB inhibitors. FIG. 1A depicts a diagram of a TAMRA-linked IQF di-ubiquitin substrate (left) and BRISC DUB activity against a fluorescent K63-linked substrate (right).

ARISC-RAP80 = ARISC-RAP80 (Homo sapiens, UniProt P46736+Q6UWZ7+Q9NXR7); test: IQF assay with ARISC-RAP80; format: biochemical; settings: FIG. 1E
Source text: as §4

BRISC [2] = biological target: T1, BRISC; test: Mass photometry of BRISC oligomeric state; format: binding; settings: purified BRISC mixed with inhibitor, FIG. 2B
Procedure: (§5) Microscope coverslips were prepared as previously described^33. All mass photometry experiments were performed using a One^MP mass photometer (Refeyn Ltd, Oxford, UK). For preliminary BRISC-inhibitor measurements, 1 μM BRISC(FL) was mixed with either DMSO or inhibitor at 330 μM and incubated for 15 minutes on ice. Prior to MP measurement, the BRISC-inhibitor mix was diluted in gel filtration buffer (25 mM HEPES, 150 mM NaCl, 1 mM TCEP) for a final concentration of BRISC at 10 nM (0.05% DMSO). 12 μL of this dilution was used for the final MP measurement, following autofocus stabilisation. […] The BRISC-inhibitor mix was used directly for MP measurement using buffer-free autofocus stabilisation. Movies were recorded for 60 seconds using AcquireMP (Refeyn, UK), and were processed using DiscoverMP (Refeyn, UK). Mass photometry image processing has been previously described^33. Briefly, contrast-to-mass (C2M) calibration was performed using protein standards (66-669 kDa) diluted in gel filtration buffer. […] The mass distribution from each run is in a histogram, where count refers to each landing event and a Gaussian sum is fitted to the data. The relative amount of each species is calculated as the area of each Gaussian, where a refers to the standard deviation of the fitted Gaussian. […] Curves were fitted and EC50 values were calculated using the GraphPad Prism (v8.0) built-in dose-response equation for concentration of agonist vs. response (variable slope).

BRISC [3] = test: Mass photometry of BRISC oligomeric state; format: binding, human; settings: mass photometry
Procedure: as §5

ARISC = ARISC (Homo sapiens, UniProt P46736+Q6UWZ7+Q9NXR7); test: IQF assay with ARISC; format: biochemical; settings: FIG. 1E
Source text: as §4

BRISC(FL) = biological target: T3, BRISC(FL) (Homo sapiens, UniProt P46736+Q15018+Q9NXR7); test: Native mass spectrometry of BRISC with inhibitor; format: binding; settings: 10 μM BRISC(FL), 1 mM inhibitor
T3 construct: The four-subunit human BRISC (full-length (FL) and MERIT40ΔN, Abraxas2ΔC) complex was cloned; made in house; host or cells: Spodoptera frugiperda (Sf9) insect cells
Procedure: Samples were buffer exchanged into 500 mM ammonium acetate using Zeba Spin 7K MWCO desalting columns (ThermoFisher). Gold and palladium coated nanospray tips were prepared in-house and mounted on the nano-electrospray ionisation source. Mass spectra were acquired on a Q Exactive Ultra-High Mass Range Hybrid Quadrupole-Orbitrap mass spectrometer (Thermo Fisher), optimised for mass resolution at high m/z ratios. Data were visualised and processed using Mass Lynx (v4.1) and UniDec (v2.7.1).

BRISC BRCC36 Leu169Ala = BRISC BRCC36 Leu169Ala (Homo sapiens, UniProt P46736+Q15018+Q9NXR7, L169A); test: IQF DUB assay, BRISC mutant BRCC36 Leu169Ala; format: biochemical; settings: FIG. 4C
Procedure: (§6) The four-subunit human BRISC (full-length (FL) and MERIT40ΔN, Abraxas2ΔC) complex was cloned using the MultiBac system and co-expressed in Spodoptera frugiperda (Sf9) insect cells^32. BRISC mutants were cloned into pFastBac vectors in the Bac-to-Bac system (ThermoFisher), baculoviruses generated in Sf9 cells and used for co-infection of Trichoplusia ni (Tni) cells. All BRISC complexes were purified as previously described^12,13.
as §1, with “20 μL enzyme reactions were carried out in 384-well black flat-bottom low flange plates (Corning; 35373).” left out, “slope). […]” for “slope).”

BRISC BRCC36 Trp130Ala = BRISC BRCC36 Trp130Ala (Homo sapiens, UniProt P46736+Q15018+Q9NXR7, W130A); test: IQF DUB assay, BRISC mutant BRCC36 Trp130Ala; format: biochemical; settings: FIG. 4C
Procedure: as §6
as §1, with “20 μL enzyme reactions were carried out in 384-well black flat-bottom low flange plates (Corning; 35373).” left out, “slope). […]” for “slope).”

BRISC Abraxas2 Thr140Ala = BRISC Abraxas2 Thr140Ala (Homo sapiens, UniProt P46736+Q15018+Q9NXR7, T140A); test: IQF DUB assay, BRISC mutant Abraxas2 Thr140Ala; format: biochemical; settings: FIG. 4C
Procedure: as §6
as §1, with “20 μL enzyme reactions were carried out in 384-well black flat-bottom low flange plates (Corning; 35373).” left out, “slope). […]” for “slope).”

BRISC [4] = biological target: T1, BRISC; design: made in house; host or cells: Spodoptera frugiperda (Sf9) insect cells; settings: BRISC WT, reference 13; cited from earlier work

O=C(NC1CCN(C(=O)c2c(Cl)cccc2Cl)CC1)c1n[nH]cc1NC(=O)c1c(Cl)cccc1Cl [AP-5-144]
inhibition of BRISC DUB activity (BRISC [1]): no inhibition

O=C(NC1CCNCC1)c1[nH]ncc1NC(=O)c1c(Cl)cccc1Cl [AT7519, reference compound]
inhibition of BRISC DUB activity (BRISC [1]): neither were found to inhibit

Nc1ccc(C(=O)Nc2cccc(-c3nc(N4CCOCC4)c4oc5ncccc5c4n3)c2)cn1 [YM201636]
inhibition of trypsin (Trypsin): inhibited | inhibition of USP2 (USP2): inhibited | inhibition of BRISC DUB activity (BRISC [1]): inhibited

O=C(NC1CCNCC1)c1nn(C(=O)c2c(Cl)cccc2Cl)cc1NC(=O)c1c(Cl)cccc1Cl [JMS-175-2]
inhibition of AMSH-LP (AMSH-LP): no inhibition | specificity for BRISC over ARISC-RAP80 (ARISC-RAP80): specifically inhibits BRISC over | IC50 (BRISC [1]; IQF K63-linked diUb substrate, FIG. 1D, read-out: IC50 inhibiting BRISC): 1500 nM | inhibition of BRISC DUB activity (BRISC [1]): specific inhibition | mass photometry counts, 1:1:1:1 complex (BRISC [2]): 8% | mass photometry counts, dimer (BRISC [2]): 69% | mass photometry counts, monomer (BRISC [2]): 14% | dimer formation at increasing inhibitor concentration (BRISC [3]): dose-dependent increase in dimer formation | specificity for BRISC over ARISC (ARISC): specifically inhibits BRISC over | BRISC species by native mass spectrometry (BRISC(FL)): BRISC dimers with a MW consistent with a 4:4:4:4 stoichiometry were observed

B1: serine hydroxymethyltransferase (protein)
chain: QLVRMAIRAQHSNAAQTQTGEANRGWTGQESLSDSDPEMWELLQREKDRQCRGLELIASENFCSRAALEALGSCLNNKYSEGYPGKRYYGGAEVVDEIELLCQRRALEAFDLDPAQWGVNVQPYSGSPANLAVYTALLQPHDRIMGLDLPDGGHLTHGYMSDVKRISATSIFFESMPYKLNPKTGLIDYNQLALTARLFRPRLIIAGTSAYARLIDYARMREVCDEVKAHLLADMAHISGLVAAKVIPSPFKHADIVTTTTHKTLRGARSGLIFYRKGVKAVDPKTGREIPYTFEDRINFAVFPSLQGGPHNHAIAAVAVALKQACTPMFREYSLQVLKNARAMADALLERGYSLVSGGTDNHLVLVDLRPKGLDGARAERVLELVSITANKNTCPGDRSAITPGGLRLGAPALTSRQFREDDFRRVVDFIDEGVNIGLEVKSKTAKLQDFKSFLLKDSETSQRLANLRQRVEQFARAFPMPGFDEH
inhibition in the presence of SHMT2 (BRISC BRCC36 Leu169Ala): reduced inhibition | inhibition in the presence of SHMT2 (BRISC BRCC36 Trp130Ala): reduced inhibition | inhibition in the presence of SHMT2 (BRISC Abraxas2 Thr140Ala): reduced inhibition | inhibition of BRISC DUB activity (BRISC [4]): potent inhibitor
